Assay results: patent US8765773B2, “Substituted hydroxamic acids and uses thereof” (Millennium Pharmaceuticals, Inc., priority 2010, dated 2014)

Biological target: T1, purified human HDAC6 (Homo sapiens, UniProt Q9UBN7)
T1 construct: purchased BPS Bioscience 5006
T1 sequence (Q9UBN7 1-1215): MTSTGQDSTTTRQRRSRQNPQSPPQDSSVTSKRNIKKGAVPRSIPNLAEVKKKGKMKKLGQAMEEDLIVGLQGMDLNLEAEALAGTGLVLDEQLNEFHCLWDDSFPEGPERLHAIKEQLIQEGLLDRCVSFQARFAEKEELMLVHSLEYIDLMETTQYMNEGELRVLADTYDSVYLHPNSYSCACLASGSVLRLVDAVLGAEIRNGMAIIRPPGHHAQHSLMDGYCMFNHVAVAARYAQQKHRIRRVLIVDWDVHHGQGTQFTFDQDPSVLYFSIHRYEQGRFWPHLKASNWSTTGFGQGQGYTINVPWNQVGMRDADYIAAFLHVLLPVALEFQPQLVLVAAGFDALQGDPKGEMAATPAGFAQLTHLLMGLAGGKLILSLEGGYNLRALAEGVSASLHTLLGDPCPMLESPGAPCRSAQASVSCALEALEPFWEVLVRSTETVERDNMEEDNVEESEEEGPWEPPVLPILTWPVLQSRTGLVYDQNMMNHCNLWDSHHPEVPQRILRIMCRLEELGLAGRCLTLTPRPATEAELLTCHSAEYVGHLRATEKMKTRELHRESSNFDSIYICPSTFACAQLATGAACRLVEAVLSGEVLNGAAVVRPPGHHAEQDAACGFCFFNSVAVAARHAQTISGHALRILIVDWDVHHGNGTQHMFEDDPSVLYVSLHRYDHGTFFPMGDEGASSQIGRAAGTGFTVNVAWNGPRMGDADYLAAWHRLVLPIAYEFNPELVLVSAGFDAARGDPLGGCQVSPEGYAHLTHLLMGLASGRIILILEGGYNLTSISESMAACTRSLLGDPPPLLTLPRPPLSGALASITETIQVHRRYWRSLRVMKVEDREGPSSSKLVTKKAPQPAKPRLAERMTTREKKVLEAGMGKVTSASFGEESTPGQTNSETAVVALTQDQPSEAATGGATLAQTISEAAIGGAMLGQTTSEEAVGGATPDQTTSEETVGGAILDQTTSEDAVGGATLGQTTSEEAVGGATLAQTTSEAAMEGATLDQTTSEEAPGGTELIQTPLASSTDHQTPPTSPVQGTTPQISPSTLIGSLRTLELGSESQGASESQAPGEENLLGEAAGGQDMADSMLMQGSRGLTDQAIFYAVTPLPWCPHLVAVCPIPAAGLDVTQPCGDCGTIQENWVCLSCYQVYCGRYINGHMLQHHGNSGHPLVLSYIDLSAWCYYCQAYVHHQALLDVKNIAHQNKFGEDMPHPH
Assay: HDAC6 Enzyme Assay
Format: biochemical
Settings: compound concentration 0.37 μM, read-out: Percent Inhibition
How it was run: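 Purified human HDAC6 incubated 1 h at 30° C with Ac-Arg-Gly-Lys(Ac)-AMC peptide plus compound or DMSO; stopped with trichostatin A. Deacetylated product trypsin-digested, released AMC read by fluorescence (Ex 340/Em 460 nm). Percent inhibition at one concentration or IC50 from curves relative to DMSO controls.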

SMILES | inhibition at 0.37 µM
O=C(NO)c1ccc2ccn(-c3ccccc3)c(=O)c2c1 [Compound I-154, N-hydroxy-1-oxo-2-phenyl-1,2-dihydroisoquinoline-7-carboxamide] | 93.9%
Cn1c(-c2nc3cc(C(=O)NO)ccc3c(=O)n2Cc2ccc(C(F)(F)F)cc2)cc2ccccc21 [Compound I-166, N-hydroxy-2-(1-methyl-1H-indol-2-yl)-4-oxo-3-[4-(trifluoromethyl)benzyl]-3,4-dihydroquinazoline-7-carboxamide] | 78.8%
NCCCn1ccc2ccc(C(=O)NO)cc2c1=O [Compound I-173, 2-(3-aminopropyl)-N-hydroxy-1-oxo-1,2-dihydroisoquinoline-7-carboxamide] | 75.4%
CC(C)C(=O)Nc1cccc(Cn2ccc3ccc(C(=O)NO)cc3c2=O)c1 [Compound I-174, N-hydroxy-2-[3-(isobutyrylamino)benzyl]-1-oxo-1,2-dihydroisoquinoline-7-carboxamide] | 98.8%
Nc1cccc(-c2cccc(Cn3cnc4ccc(C(=O)NO)cc4c3=O)c2)c1 [Compound I-177, 3-[(3′-aminobiphenyl-3-yl)methyl]-N-hydroxy-4-oxo-3,4-dihydroquinazoline-6-carboxamide] | 93.2%
O=C(NO)c1ccc2ccn(-c3cccc(Cl)c3)c(=O)c2c1 [Compound I-179, 2-(3-chlorophenyl)-N-hydroxy-1-oxo-1,2-dihydroisoquinoline-7-carboxamide] | 97.5%

Same assay, conditions: compound concentration 0.412 μM, read-out: Percent Inhibition

SMILES | inhibition at 0.412 µM
COc1ccc2cc(OCCCn3ccc4ccc(C(=O)NO)cc4c3=O)ccc2c1 [Compound I-151, N-hydroxy-2-{3-[(6-methoxy-2-naphthyl)oxy]propyl}-1-oxo-1,2-dihydroisoquinoline-7-carboxamide] | 96.2%
O=C(NO)c1ccc2ccn(CCc3c[nH]c4ccccc34)c(=O)c2c1 [Compound I-152, N-hydroxy-2-[2-(1H-indol-3-yl)ethyl]-1-oxo-1,2-dihydroisoquinoline-7-carboxamide] | 96%
O=C(NO)c1ccc2ccn(CCCC3CCCCC3)c(=O)c2c1 [Compound I-153, 2-(3-cyclohexylpropyl)-N-hydroxy-1-oxo-1,2-dihydroisoquinoline-7-carboxamide] | 89.9%
O=C(NO)c1ccc2c(=O)[nH]c(=O)[nH]c2c1 [Compound I-155, N-hydroxy-2,4-dioxo-1,2,3,4-tetrahydroquinazoline-7-carboxamide] | 19.6%
Cn1cnc2ccc(C(=O)NO)cc2c1=O [Compound I-156, N-hydroxy-3-methyl-4-oxo-3,4-dihydroquinazoline-6-carboxamide] | 55.7%
Cc1ccccc1Cn1ccc2ccc(C(=O)NO)cc2c1=O [Compound I-157, N-hydroxy-2-(2-methylbenzyl)-1-oxo-1,2-dihydroisoquinoline-7-carboxamide] | 94.8%
O=C(NO)c1ccc2ccn(CCO)c(=O)c2c1 [Compound I-158, N-hydroxy-2-(2-hydroxyethyl)-1-oxo-1,2-dihydroisoquinoline-7-carboxamide] | 72.5%
CCN(CC)c1cccc(OCCn2ccc3ccc(C(=O)NO)cc3c2=O)c1 [Compound I-159, 2-{2-[3-(diethylamino)phenoxy]ethyl}-N-hydroxy-1-oxo-1,2-dihydroisoquinoline-7-carboxamide] | 91.3%
O=C(NO)c1ccc2ccn(CCCOc3ccccc3-c3csnn3)c(=O)c2c1 [Compound I-160, N-hydroxy-1-oxo-2-{3-[2-(1,2,3-thiadiazol-4-yl)phenoxy]propyl}-1,2-dihydroisoquinoline-7-carboxamide] | 87.4%
O=C(NO)c1ccc2ccn(CCOc3ccc(C45CC6CC(CC(C6)C4)C5)cc3)c(=O)c2c1 [Compound I-161, 2-(2-{4-[1-adamantyl]phenoxy}ethyl)-N-hydroxy-1-oxo-1,2-dihydroisoquinoline-7-carboxamide] | 67%
O=C(NO)c1ccc2ccn(Cc3ccccc3Cl)c(=O)c2c1 [Compound I-162, 2-(2-chlorobenzyl)-N-hydroxy-1-oxo-1,2-dihydroisoquinoline-7-carboxamide] | 94.2%
O=C(NO)c1ccc2ccn(CCCOCc3ccccc3)c(=O)c2c1 [Compound I-163, 2-[3-(benzyloxy)propyl]-N-hydroxy-1-oxo-1,2-dihydroisoquinoline-7-carboxamide] | 92.5%
O=C(NO)c1ccc2ncn(Cc3csc4ccc(Cl)cc34)c(=O)c2c1 [Compound I-164, 3-[(5-chloro-1-benzothien-3-yl)methyl]-N-hydroxy-4-oxo-3,4-dihydroquinazoline-6-carboxamide] | 94.1%
Cn1c(NCc2ccc(Cl)cc2)nc2ccc(C(=O)NO)cc2c1=O [Compound I-165, 2-[(4-chlorobenzyl)amino]-N-hydroxy-3-methyl-4-oxo-3,4-dihydroquinazoline-6-carboxamide] | 59.5%
CS(=O)(=O)c1ccccc1OCCn1ccc2ccc(C(=O)NO)cc2c1=O [Compound I-167, N-hydroxy-2-{2-[2-(methylsulfonyl)phenoxy]ethyl}-1-oxo-1,2-dihydroisoquinoline-7-carboxamide] | 96.1%
O=C(NO)c1ccc2c(=O)[nH]c(COc3ccccc3C(F)(F)F)nc2c1 [Compound I-168, N-hydroxy-4-oxo-2-{[2-(trifluoromethyl)phenoxy]methyl}-3,4-dihydroquinazoline-7-carboxamide] | 72.8%
Cn1c(=O)[nH]c2ccc(C(=O)NO)cc2c1=O [Compound I-169, N-hydroxy-3-methyl-2,4-dioxo-1,2,3,4-tetrahydroquinazoline-6-carboxamide] | 62.8%
O=C(NO)c1ccc2ccn(CCCN3CCCCC3)c(=O)c2c1 [Compound I-170, N-hydroxy-1-oxo-2-(3-piperidin-1-ylpropyl)-1,2-dihydroisoquinoline-7-carboxamide] | 67.1%
CC(C)n1ccc2ccc(C(=O)NO)cc2c1=O [Compound I-171, N-hydroxy-2-isopropyl-1-oxo-1,2-dihydroisoquinoline-7-carboxamide] | 87%
O=C(NO)c1ccc2ccn(Cc3ccccc3C(F)(F)F)c(=O)c2c1 [Compound I-172, N-hydroxy-1-oxo-2-[2-(trifluoromethyl)benzyl]-1,2-dihydroisoquinoline-7-carboxamide] | 94.5%
O=C(NO)c1ccc2ccn(CCOc3ccccc3C(F)(F)F)c(=O)c2c1 [Compound I-175, N-hydroxy-1-oxo-2-{2-[2-(trifluoromethyl)phenoxy]ethyl}-1,2-dihydroisoquinoline-7-carboxamide] | 95.9%
O=C(NO)c1ccc2ccn(CCCOc3cccc(C(F)(F)F)c3)c(=O)c2c1 [Compound I-176, N-hydroxy-1-oxo-2-{3-[3-(trifluoromethyl)phenoxy]propyl}-1,2-dihydroisoquinoline-7-carboxamide] | 94.2%
O=C(NO)c1ccc2ccn(Cc3ccccc3CS(=O)(=O)c3ccccc3)c(=O)c2c1 [Compound I-178, N-hydroxy-1-oxo-2-{2-[(phenylsulfonyl)methyl]benzyl}-1,2-dihydroisoquinoline-7-carboxamide] | 95%
O=C(NO)c1ccc2ncn(CCOc3ccccc3)c(=O)c2c1 [Compound I-180, N-hydroxy-4-oxo-3-(2-phenoxyethyl)-3,4-dihydroquinazoline-6-carboxamide] | 97%
